Earlier results on 5 compounds are cited in article PMC5527824 (Frontiers in bioscience (Scholar edition), 2015).

The conditions of data set [1]: rat, in vivo, po; cited from earlier work.
For data set [2] the following is noted: cited from earlier work.
The next data set concerns PC12 cells. As to conditions: of ~30 flavonoids tested; cited from earlier work.
The subject of a further data set is nerve cell. The note with it: of ~30 flavonoids tested; cited from earlier work.

As to `O=c1cc(-c2ccccc2)oc2cc(O)c(O)c(O)c12` [baicalein], in data set [1], the “levels of free and conjugated flavonoid” value was no more than 1000 nM.

Turning to `COc1cc(-c2oc3cc(O)ccc3c(=O)c2O)ccc1O` [geraldol, 3,4′,7-trihydroxy-3′-methoxyflavone], the “activity in several biological assays” value in data set [2] is “as active as fisetin”.

Turning to `COc1cc(-c2oc3cc(O)cc(O)c3c(=O)c2O)ccc1O` [isorhamnetin], in the data set on PC12 cells, the “differentiation of PC12 cells (neurotrophic activity)” value (shortened to “differentiation of PC12 cells”) is “some differentiation-inducing activity”.

Regarding `O=c1cc(-c2ccc(O)c(O)c2)oc2cc(O)cc(O)c12` [luteolin], the “differentiation of PC12 cells” value in the data set on PC12 cells is listed as “some differentiation-inducing activity”.

In the case of `O=c1c(O)c(-c2ccc(O)c(O)c2)oc2cc(O)cc(O)c12` [quercetin, reference compound], the “differentiation of PC12 cells” value in the data set with PC12 cells is listed as “some differentiation-inducing activity”. Further, the “maintenance of GSH levels in the presence of oxidative stress” value in the data set with nerve cell is listed as “able to maintain GSH levels”.
